Data: publication PMC8715118, “Assessing potentiation of the (α4)3(β2)2 nicotinic acetylcholine receptor by the allosteric agonist CMPI” (The Journal of Biological Chemistry, 2021)
“And” between values parts separate entries of the source, which are not always exact repeats. Equal entries are not always repeated. Where two headings read alike, the source gives them in different places.

What was measured:
Type in all cases: cell-based
[1] = target: T1, (α4H116V)3(β2)2 nAChR (Homo sapiens, UniProt P17787+P43681, H142V); assay: Two-electrode voltage-clamp, oocytes expressing (α4H116V)3(β2)2 nAChR
T1 construct: expressed in transfected cells; host or cells: Xenopus laevis oocytes injected with cRNA, 8:1 α4:β2
Procedure: (§1) Oocytes-positive female Xenopus laevis were purchased from NASCO, and all procedures were performed according to an animal use protocol approved by the Institutional Animals Care and Use Committee of The University of Texas Health Science Center at Tyler. Ovarian lobules were surgically harvested, treated with collagenase type 2, and Stage V and VI oocytes were visually selected and maintained at 18 °C in modified ND96-gentamicin buffer (96 mM NaCl, 2 mM KCl, 1.8 mM CaCl2, 1 mM MgCl2, 5 mM Hepes, and 50 μg/ml gentamicin, pH 7.6).
(§2) pSP64 Poly(A) plasmids with cDNA encoding for human α4 or β2 nAChR subunit were used to prepare cRNA transcripts suitable for oocyte expression. The plasmids were linearized with AseI (hα4) and PvuII (hβ2), then cRNA transcripts were prepared in vitro using mMESSAGE mMACHINE high yield-capped RNA transcription kits (Ambion, Thermo Fisher Scientific), purified on NucAway Spin column (Invitrogen, Thermo Fisher Scientific), and stored at −80 °C until used. Point mutations within the plasmid encoding the α4 nAChR subunit were introduced using QuikChange II Site-Directed Mutagenesis Kit (Agilent Technologies), as described previously ([28]). To generate amino acid substitutions (K64T, E66I, H116V, H116L, and H116A), two custom-designed complementary oligos containing the desired mutation were used (Integrated DNA Technologies). The forward primers were as the following with the codon for mutated amino acids are underlined and nucleotide(s) changes are bolded and italicized:
(§3) The oocytes were injected with 10 to 50 ng of a cRNA mix containing α4 (WT or mutant) and β2 RNAs at ratios of 8:1(α4:β) or 1:8 (α4:β2) to bias expression toward (α4)3(β2)2 or (α4)2(β2)3 nAChRs, respectively. The injection of oocytes with RNAs mixture containing four folds or higher α4 RNA than β2 RNA have been established to express receptor population that is made up of three α4 and two β2 subunits ([9], [12], [28], [43], [44], [45]).
(§4) 24 to 72 h after cRNA injection, Xenopus oocytes were placed in a custom-made recording chamber that is connected to an eight-channel automated perfusion system (Warner Instruments) and perfused with recording buffer (100 mM NaCl, 2 mM KCl, 1 mM CaCl2, 0.8 mM MgCl2, 1 mM EGTA, and 10 mM Hepes, pH 7.5). Unless otherwise specified in figure legends, each recording run included several drug applications (10 s of an agonist with or without CMPI or NS9283) separated by 3 to 4 min buffer wash intervals. Between recording runs, the oocytes were washed with recording buffer for at last 5 min. […] The currents were digitized using Digidata 1550A (Axon Instruments, Molecular Devices), and the peak currents were quantified using pCLAMP 10 (Axon Instruments), then normalized and analyzed using Excel 2010 (Microsoft) and SigmaPlot 11.0 (Systat Software). […]

[2] = target: T2, (α4H116L)3(β2)2 nAChR (Homo sapiens, UniProt P17787+P43681, H142L); assay: Two-electrode voltage-clamp, oocytes expressing (α4H116L)3(β2)2 nAChR
T2 construct: expressed in transfected cells; host or cells: Xenopus laevis oocytes injected with cRNA, 8:1 α4:β2
Procedure: as §1, §2, §3, §4

[3] = target: T3, (α4H116A)3(β2)2 nAChR (Homo sapiens, UniProt P17787+P43681, H142A); assay: Two-electrode voltage-clamp, oocytes expressing (α4H116A)3(β2)2 nAChR
T3 construct: expressed in transfected cells; host or cells: Xenopus laevis oocytes injected with cRNA, 8:1 α4:β2
Procedure: as §1, §2, §3
(§5) 24 to 72 h after cRNA injection, Xenopus oocytes were placed in a custom-made recording chamber that is connected to an eight-channel automated perfusion system (Warner Instruments) and perfused with recording buffer (100 mM NaCl, 2 mM KCl, 1 mM CaCl2, 0.8 mM MgCl2, 1 mM EGTA, and 10 mM Hepes, pH 7.5). Unless otherwise specified in figure legends, each recording run included several drug applications (10 s of an agonist with or without CMPI or NS9283) separated by 3 to 4 min buffer wash intervals. Between recording runs, the oocytes were washed with recording buffer for at last 5 min. The oocytes were voltage-clamped at −50 mV using Oocyte Clamp OC-725B (Warner Instruments). The currents were digitized using Digidata 1550A (Axon Instruments, Molecular Devices), and the peak currents were quantified using pCLAMP 10 (Axon Instruments), then normalized and analyzed using Excel 2010 (Microsoft) and SigmaPlot 11.0 (Systat Software). For NS9283 and CMPI potentiation of agonist-induced responses, the peak currents were normalized to current elicited by agonist alone applied within the same recording run. For the effect of coapplication of 1 μM NS9283 or CMPI on agonist concentration-response curve, the peak currents were normalized to current elicited by saturating concentration of agonist applied within the same recording run. […] I0 = 100 for NS9283 and CMPI potentiation of agonist-induced responses and I0 = 0 for agonist concentration-response experiments. The best-fit values for Imax and EC50 ± SD are presented.

[4] = target: T4, (α4K64T)3(β2)2 nAChR (Homo sapiens, UniProt P17787+P43681, K90T); assay: Two-electrode voltage-clamp, oocytes expressing (α4K64T)3(β2)2 nAChR
T4 construct: expressed in transfected cells; host or cells: Xenopus laevis oocytes injected with cRNA, 8:1 α4:β2
Procedure: as §1, §2, §3, §4

[5] = target: T5, (α4E66I)3(β2)2 nAChR (Homo sapiens, UniProt P17787+P43681, E92I); assay: Two-electrode voltage-clamp, oocytes expressing (α4E66I)3(β2)2 nAChR
T5 construct: expressed in transfected cells; host or cells: Xenopus laevis oocytes injected with cRNA, 8:1 α4:β2
Procedure: as §1, §2, §3, §4

[6] = target: T6, (α4)3(β2)2 nAChR (Homo sapiens, UniProt P17787+P43681); assay: Two-electrode voltage-clamp whole-cell currents, Xenopus oocytes expressing WT (α4)3(β2)2 nAChR
T6 construct: expressed in transfected cells; host or cells: Xenopus laevis oocytes injected with cRNA, 8:1 α4:β2
Procedure: as §1, §2, §3, §5

[7] = target: T7, (α4)2(β2)3 nAChR (Homo sapiens, UniProt P17787+P43681); assay: Two-electrode voltage-clamp whole-cell currents, Xenopus oocytes expressing (α4)2(β2)3 nAChR
T7 construct: expressed in transfected cells; host or cells: Xenopus laevis oocytes injected with cRNA, 1:8 α4:β2
Procedure: as §1
pSP64 Poly(A) plasmids with cDNA encoding for human α4 or β2 nAChR subunit were used to prepare cRNA transcripts suitable for oocyte expression. The plasmids were linearized with AseI (hα4) and PvuII (hβ2), then cRNA transcripts were prepared in vitro using mMESSAGE mMACHINE high yield-capped RNA transcription kits (Ambion, Thermo Fisher Scientific), purified on NucAway Spin column (Invitrogen, Thermo Fisher Scientific), and stored at −80 °C until used. […]
Two-electrode voltage-clamp recordings of ACh- or TC-2559 induced responses of Xenopus oocytes were performed, as described in ([28]). […] The currents were digitized using Digidata 1550A (Axon Instruments, Molecular Devices), and the peak currents were quantified using pCLAMP 10 (Axon Instruments), then normalized and analyzed using Excel 2010 (Microsoft) and SigmaPlot 11.0 (Systat Software). […]

[8] = target: T6, (α4)3(β2)2 nAChR; assay: Mechanistic (Monod-Wyman-Changeux two-state model) analysis of current responses, WT (α4)3(β2)2 nAChR; settings: WT
Description: To gain mechanistic insight into receptor activation in the presence of CMPI, we analyzed the currents in the framework of a cyclic two-state (resting and active) allosteric activation model ([31], [32], [33]). In this model, channel opening is mediated by stabilization of the active state by an agonist that, by definition, has higher affinity to the active than resting state.
We commenced by converting the raw amplitudes of current responses to units of probability of being in the active state (PA units).
(§6) Further analysis of electrophysiological data was conducted in the framework of the two-state concerted transition model, adapted from the MWC cyclic model originally used to describe enzyme function ([31], [32], [33]). The raw peak amplitudes of current responses were converted to units of probability of being in the active state (PA).
(§7) The numbers of α4:β2 and α4:α4 binding sites (Nα4:β2 and Nα4:α4) were constrained to 2 and 1, respectively.
(§8) The concentration-response curve for TC-2559 was fitted to the following equation:(3) PA=1/1+L[1+[TC-2559]/KR,TC-2559,α4:β2/1+[TC-2559]/(KR,TC-2559,α4:β2cTC-2559,α4:β2)]^Nα4:β2
(§9) The concentration-response data were analyzed using Equation 3, with the value of L modified to reflect receptor activation by TC-2559, and the affinity and efficacy terms in the equation reflecting the values for CMPI. The number of binding sites for CMPI in Equation 3 was constrained to 1.
(§10) Curve fitting was done using Origin 2020 (OriginLab Corp). The results are reported as best-fit parameter ±SD of the fit. All data are included in the analysis.

[9] = target: T3, (α4H116A)3(β2)2 nAChR; assay: Mechanistic (Monod-Wyman-Changeux two-state model) analysis of current responses, (α4H116A)3(β2)2 nAChR; settings: α4H116A mutant; for Kd: read-out: KR, equilibrium dissociation constant in the resting receptor
Procedure: as §6, §7, §8, §9, §10

[10] = agonist alone, read-out: agonist EC50

T3 sequence (P43681 27-627 H142A): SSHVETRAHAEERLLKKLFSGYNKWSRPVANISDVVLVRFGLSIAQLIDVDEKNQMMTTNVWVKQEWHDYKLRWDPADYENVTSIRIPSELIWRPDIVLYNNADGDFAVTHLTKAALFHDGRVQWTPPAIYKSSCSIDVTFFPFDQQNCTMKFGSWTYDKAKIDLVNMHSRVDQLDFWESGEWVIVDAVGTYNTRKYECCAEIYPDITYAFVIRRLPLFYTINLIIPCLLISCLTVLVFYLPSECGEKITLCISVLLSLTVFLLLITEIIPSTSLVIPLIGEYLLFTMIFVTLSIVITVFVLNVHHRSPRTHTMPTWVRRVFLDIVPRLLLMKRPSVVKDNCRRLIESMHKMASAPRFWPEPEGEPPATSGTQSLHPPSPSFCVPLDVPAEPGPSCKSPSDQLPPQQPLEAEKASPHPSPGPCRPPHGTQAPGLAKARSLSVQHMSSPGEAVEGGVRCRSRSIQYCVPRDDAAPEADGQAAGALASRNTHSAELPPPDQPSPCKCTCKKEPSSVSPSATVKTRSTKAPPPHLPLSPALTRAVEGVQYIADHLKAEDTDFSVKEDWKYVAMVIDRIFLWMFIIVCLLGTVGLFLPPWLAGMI
T3 sequence (P17787 26-502): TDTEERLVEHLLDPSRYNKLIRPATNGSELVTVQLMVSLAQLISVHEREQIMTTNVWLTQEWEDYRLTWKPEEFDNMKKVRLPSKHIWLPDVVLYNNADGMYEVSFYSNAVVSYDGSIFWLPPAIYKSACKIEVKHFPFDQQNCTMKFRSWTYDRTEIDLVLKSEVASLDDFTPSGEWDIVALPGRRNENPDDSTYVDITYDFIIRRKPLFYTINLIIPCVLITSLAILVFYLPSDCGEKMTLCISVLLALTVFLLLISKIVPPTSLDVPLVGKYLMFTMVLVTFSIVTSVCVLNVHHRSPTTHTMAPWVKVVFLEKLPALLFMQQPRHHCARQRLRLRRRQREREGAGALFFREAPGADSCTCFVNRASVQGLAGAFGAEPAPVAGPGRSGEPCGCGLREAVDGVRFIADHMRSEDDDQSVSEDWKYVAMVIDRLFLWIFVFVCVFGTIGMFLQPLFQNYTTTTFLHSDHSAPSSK
T6 sequence (P43681 27-627): as the sequence (P43681 27-627 H142A) above, with A116H counted along it
T6 sequence (P17787 26-502): as the sequence (P17787 26-502) above
T2 sequence (P43681 27-627 H142L): as the sequence (P43681 27-627 H142A) above, with A116L counted along it
T2 sequence (P17787 26-502): as the sequence (P17787 26-502) above
T5 sequence (P43681 27-627 E92I): as the sequence (P43681 27-627 H142A) above, with E66I, A116H counted along it
T5 sequence (P17787 26-502): as the sequence (P17787 26-502) above
T4 sequence (P43681 27-627 K90T): as the sequence (P43681 27-627 H142A) above, with K64T, A116H counted along it
T4 sequence (P17787 26-502): as the sequence (P17787 26-502) above
T1 sequence (P43681 27-627 H142V): as the sequence (P43681 27-627 H142A) above, with A116V counted along it
T1 sequence (P17787 26-502): as the sequence (P17787 26-502) above
T7 sequence (P43681 27-627): as the sequence (P43681 27-627 H142A) above, with A116H counted along it
T7 sequence (P17787 26-502): as the sequence (P17787 26-502) above

N#Cc1cccc(-c2nc(-c3cccnc3)no2)c1 [NS9283, 3-[3-(3-pyridinyl)-1,2,4-oxadiazol-5-yl]benzonitrile]
potentiation fold (Ave ± SD), agonist + 1 μM modulator / agonist alone ([1]; ACh (1 mM)): 0.90 ± 0.02 | potentiation fold (Ave ± SD), agonist + 1 μM modulator / agonist alone ([1]; TC 2559 (30 μM)): 0.87 ± 0.06 | potentiation fold (Ave ± SD), agonist + 1 μM modulator / agonist alone ([2]; ACh (1 mM)): 0.95 ± 0.03 | potentiation fold (Ave ± SD), agonist + 1 μM modulator / agonist alone ([2]; TC 2559 (30 μM)): 1.18 ± 0.17 | potentiation fold (Ave ± SD), agonist + 1 μM modulator / agonist alone ([3]; ACh (1 mM)): 0.98 ± 0.03 | potentiation fold (Ave ± SD), agonist + 1 μM modulator / agonist alone ([3]; TC 2559 (30 μM)): 0.93 ± 0.12 | potentiation fold (Ave ± SD), agonist + 1 μM modulator / agonist alone ([4]; ACh (1 mM)): 1.10 ± 0.08 | potentiation fold (Ave ± SD), agonist + 1 μM modulator / agonist alone ([4]; TC 2559 (30 μM)): 4.72 ± 2.27 | potentiation fold (Ave ± SD), agonist + 1 μM modulator / agonist alone ([5]; ACh (1 mM)): 0.95 ± 0.07 | potentiation fold (Ave ± SD), agonist + 1 μM modulator / agonist alone ([5]; TC 2559 (30 μM)): 2.68 ± 1.08 | maximal potentiation ([6]; 1 μM TC-2559): 1800 ± 307% | effect on responses to agonists at subsaturating concentrations ([6]; 1 μM modulator, ACh, nicotine, cytisine, TC-2559, p < 0.001): potentiated | effect on responses to saturating concentrations of the tested agonists ([6]; 1 μM modulator, except for TC-2559): did not potentiate | maximal potentiation ([6]; 10 μM TC-2559): 1522 ± 41% | potentiation fold (Ave ± SD), agonist + 1 μM modulator / agonist alone ([6]; ACh (1 mM), 1 μM modulator): 1.00 ± 0.04 | potentiation fold (Ave ± SD), agonist + 1 μM modulator / agonist alone ([6]; TC 2559 (30 μM), 1 μM modulator): 5.05 and 5.05 ± 1.66 | EC50 ([6]; responses induced by 1 μM TC-2559, read-out: potentiation EC50): 1900 ± 200 nM | EC50 ([6]; responses induced by 10 μM TC-2559, read-out: potentiation EC50): 1800 ± 120 nM

CCOc1cncc(/C=C/CCNC)c1 [TC-2559]
I30 μM TC-2559, % of current induced by 1 mM ACh ([7]; 30 μM TC-2559): 152 ± 21% | EC50 ([7]; agonist alone): 540 ± 20 nM | Emax, % of current induced by 1 mM ACh [3]: 182 ± 5% | Emax ([3]; absence of CMPI, normalized to 100 μM TC-2559): 115 ± 14% | EC50 ([3]; absence of CMPI, read-out: EC50 of TC-2559): 22 ± 7 µM | c, ratio of equilibrium dissociation constants active/resting receptor ([8]; α4:β2 site): 0.371 ± 0.006 | Kd ([8]; α4:β2 site, read-out: KR, equilibrium dissociation constant in the resting receptor): 330 ± 50 nM | I30 μM TC-2559, % of current induced by 1 mM ACh ([6]; 30 μM TC-2559): 11 ± 2% | Emax, % of current induced by 1 mM ACh ([6]; WT): ~10% | EC50 [6, 10]: 340 ± 40 nM | c, ratio of equilibrium dissociation constants active/resting receptor ([9]; α4:α4 site): 0.046 ± 0.003 | Kd ([9]; α4:α4 site): 70 ± 3 µM | c, ratio of equilibrium dissociation constants active/resting receptor ([9]; α4:β2 site): 0.337 ± 0.013 | Kd ([9]; α4:β2 site): 0.21 ± 0.05 µM

O=c1cccc2n1C[C@@H]1CNC[C@H]2C1 [cytisine]
Kd ([8]; KR, equilibrium dissociation constant in the resting receptor, α4:α4 site): 8300 ± 500 nM | Kd ([8]; read-out: KR, equilibrium dissociation constant in the resting receptor, α4:β2 site): 630 ± 1240 nM | c, ratio of equilibrium dissociation constants active/resting receptor ([8]; α4:α4 site): 0.155 ± 0.104 | c, ratio of equilibrium dissociation constants active/resting receptor ([8]; α4:β2 site): 0.875 ± 0.029 | current response produced by a saturating concentration (100 μM), % of current elicited by 1 mM ACh ([6]; 100 μM agonist): 10 ± 1% | I100 μM cytisine + 1 μM CMPI ([6]; % of 100 μM cytisine alone): 91 ± 5% | I100 μM cytisine + 1 μM NS9283 ([6]; % of 100 μM cytisine alone, data not shown): 113 ± 9% | EC50 [6, 10]: 11000 ± 6000 nM | current response at subsaturating concentration, % of the current response to 1 mM ACh ([6]; subsaturating (1 μM) agonist): 2.3 ± 0.4%
